Measured values reported in patent publication US6995143B2, “Macrolides with antibacterial activity” (Basilea Pharmaceutica AG, priority 2002, dated 2006).
Values after ≈ are worked out from the molar mass of the structure shown.

Experiments:
Assay type in all cases: cell-based
[1] = test system: Escherichia coli ATCC 25922; experiment: MIC, standard microdilution technique; settings: for MIC: ATCC25922, read-out: minimum inhibitory concentration (MIC), Strain D
Excerpt: (§1) The antibacterial activities of the compounds have been determined by standard microdilution technique (National Committee for Clinical Laboratory Standards. 2000. Methods for Dilution Antimicrobial Susceptibility Tests for Bacteria that Grow Aerobically, 5th edition. Approved standard M7-A5. National Committee for Clinical Laboratory Standards, Wayne, Pa.).

[2] = test system: Staphylococcus aureus 1086; experiment: MIC, standard microdilution technique; settings: for MIC: read-out: minimum inhibitory concentration (MIC), Strain B
Excerpt: as §1

[3] = test system: Staphylococcus aureus 745; experiment: MIC, standard microdilution technique; settings: for MIC: read-out: minimum inhibitory concentration (MIC), Strain C
Excerpt: as §1

[4] = test system: Staphylococcus aureus ATCC 29213; experiment: MIC, standard microdilution technique; settings: for MIC: ATCC29213, read-out: minimum inhibitory concentration (MIC), Strain A
Excerpt: as §1

[5] = test system: Streptococcus pneumoniae 12288; experiment: MIC, standard microdilution technique; settings: for MIC: read-out: minimum inhibitory concentration (MIC), Strain H
Excerpt: as §1

[6] = test system: Streptococcus pneumoniae SL199T; experiment: MIC, standard microdilution technique; settings: for MIC: read-out: minimum inhibitory concentration (MIC), Strain G
Excerpt: as §1

[7] = test system: Streptococcus pneumoniae l/l; experiment: MIC, standard microdilution technique; settings: for MIC: read-out: minimum inhibitory concentration (MIC), Strain E
Excerpt: as §1

[8] = test system: Streptococcus pneumoniae ¼; experiment: MIC, standard microdilution technique; settings: for MIC: read-out: minimum inhibitory concentration (MIC), Strain F
Excerpt: as §1

[9] = test system: Haemophilus influenzae 12214; experiment: MIC, standard agar dilution method using HTM medium; settings: for MIC: read-out: minimum inhibitory concentration (MIC), Strain K
Excerpt: as §1, with “biological” for “antibacterial”, “of compounds of” for “of”, “present invention against Haemophilus influenzae” for “compounds”, “agar dilution method using HTM medium” for “microdilution technique”

[10] = test system: Haemophilus influenzae B1501; experiment: as above; settings: for MIC: read-out: minimum inhibitory concentration (MIC), Strain M
Excerpt: as §1, with “biological” for “antibacterial”, “of compounds of” for “of”, “present invention against Haemophilus influenzae” for “compounds”, “agar dilution method using HTM medium” for “microdilution technique”

[11] = test system: Haemophilus influenzae QK12/87; experiment: as above; settings: for MIC: read-out: minimum inhibitory concentration (MIC), Strain I
Excerpt: as §1, with “biological” for “antibacterial”, “of compounds of” for “of”, “present invention against Haemophilus influenzae” for “compounds”, “agar dilution method using HTM medium” for “microdilution technique”

[12] = test system: Haemophilus influenzae QK50; experiment: as above; settings: for MIC: read-out: minimum inhibitory concentration (MIC), Strain L
Excerpt: as §1, with “biological” for “antibacterial”, “of compounds of” for “of”, “present invention against Haemophilus influenzae” for “compounds”, “agar dilution method using HTM medium” for “microdilution technique”

Compound | MIC [1] | MIC [2] | MIC [3] | MIC [4] | MIC [5] | MIC [6] | MIC [7] | MIC [8] | minimum inhibitory concentration (MIC), Strain D [1] | minimum inhibitory concentration (MIC), Strain B [2] | minimum inhibitory concentration (MIC), Strain C [3] | minimum inhibitory concentration (MIC), Strain A [4] | minimum inhibitory concentration (MIC), Strain H [5] | minimum inhibitory concentration (MIC), Strain G [6] | minimum inhibitory concentration (MIC), Strain E [7] | minimum inhibitory concentration (MIC), Strain F [8] | minimum inhibitory concentration (MIC), Strain K [9] | minimum inhibitory concentration (MIC), Strain M [10] | minimum inhibitory concentration (MIC), Strain I [11] | minimum inhibitory concentration (MIC), Strain L [12] | other results
CC[C@H]1OC(=O)[C@H](C)C(=O)[C@H](C)[C@@H](O[C@@H]2O[C@H](C)C[C@H](N(C)C)[C@H]2O)[C@](C)(OC)C[C@@H](C)C(=O)[C@H](C)[C@H]2[C@@H](SCCNC(=O)c3cccnc3)C(=O)O[C@@]21C (single isomer, unassigned) [Example 19, (3R or S, 3aR, 4R or S, 6R, 8R, 9R, 10R, 12R, 15R, 15aS) -15-Ethyloctahydro-8-methoxy-4,6,8,10,12,15a-hexamethyl-3-[[2-[(3-pyridinylcarbonyl)amino]ethyl]thio]-9-[[-3,4,6-trideoxy-3-(dimethylamino)-β-D-xylo-hexopyranosyl]oxy]-2H-furo [2,3-c] oxacyclotetradecin-2,5,11,13 (3H,6H,12H)-tetrone] | > 32 µg/mL | 0.25 µg/mL (≈ 0.316 µM) | > 32 µg/mL | 0.25 µg/mL (≈ 0.316 µM) | > 32 µg/mL | 32 µg/mL (≈ 40.4 µM) | 0.125 µg/mL (≈ 0.158 µM) | 2 µg/mL (≈ 2.53 µM) |  |  |  |  |  |  |  |  |  |  |  |  | MIC [9]: 4 µg/mL (≈ 5.05 µM); MIC [10]: 4 µg/mL (≈ 5.05 µM); MIC [11]: 4 µg/mL (≈ 5.05 µM); MIC [12]: 8 µg/mL (≈ 10.1 µM)
CC[C@H]1OC(=O)[C@H](C)C(=O)[C@H](C)[C@@H](O[C@@H]2O[C@H](C)C[C@H](N(C)C)[C@H]2O)[C@](C)(OC)C[C@@H](C)C(=O)[C@H](C)[C@H]2[C@@H](SCCNS(=O)(=O)c3ccc(-c4ccccn4)s3)C(=O)O[C@@]21C (single isomer, unassigned) [Example 21] |  |  |  |  |  |  |  |  | >32 µg/mL | 0.125 µg/mL (≈ 0.137 µM) | >32 µg/mL | 0.125 µg/mL (≈ 0.137 µM) | 32 µg/mL (≈ 35.2 µM) | 16 µg/mL (≈ 17.6 µM) | <=0.06 μg/ml | 8 µg/mL (≈ 8.79 µM) | 16 µg/mL (≈ 17.6 µM) | 16 µg/mL (≈ 17.6 µM) | 32 µg/mL (≈ 35.2 µM) | 16 µg/mL (≈ 17.6 µM) | 
CC[C@H]1OC(=O)[C@H](C)C(=O)[C@H](C)[C@@H](O[C@@H]2O[C@H](C)C[C@H](N(C)C)[C@H]2O)[C@](C)(OC)C[C@@H](C)C(=O)[C@H](C)[C@H]2[C@@H](SCC#Cc3ccc(C#N)cc3)C(=O)O[C@@]21C (single isomer, unassigned) [Example 23] |  |  |  |  |  |  |  |  | >32 µg/mL | 16 µg/mL (≈ 20.4 µM) | >32 µg/mL | 16 µg/mL (≈ 20.4 µM) | >32 µg/mL | >32 µg/mL | 1 µg/mL (≈ 1.28 µM) | >32 µg/mL | >32 µg/mL | >32 µg/mL | >32 µg/mL | >32 µg/mL | 
CC[C@H]1OC(=O)[C@H](C)C(=O)[C@H](C)[C@@H](O[C@@H]2O[C@H](C)C[C@H](N(C)C)[C@H]2O)[C@](C)(OC)C[C@@H](C)C(=O)[C@H](C)[C@H]2[C@@H](SCCNc3ccc(C#N)cn3)C(=O)O[C@@]21C (single isomer, unassigned) [Example 46, (3R or S, 3aR, 4R or S, 6R, 8R, 9R, 10R, 12R, 15R, 15aS) -3-[[2-[(5-Cyanopyridin-2-yl)amino]ethyl]thio]-15-ethyloctahydro-8-methoxy-4,6,8,10,12,15a-hexamethyl-9-[[-3,4,6-trideoxy-3-(dimethylamino)-β-D-xylo-hexopyranosyl]oxy]-2H-furo [2,3-c] oxacyclotetradecin-2,5,11,13 (3H,6H,12H)-tetrone] | > 32 µg/mL | ≤ 0.06 µg/mL | > 32 µg/mL | ≤ 0.06 µg/mL | 32 µg/mL (≈ 40.6 µM) | 4 µg/mL (≈ 5.07 µM) | ≤ 0.06 µg/mL | ≤ 0.06 µg/mL |  |  |  |  |  |  |  |  |  |  |  |  | MIC [9]: 2 µg/mL (≈ 2.53 µM); MIC [10]: 1 µg/mL (≈ 1.27 µM); MIC [11]: 1 µg/mL (≈ 1.27 µM); MIC [12]: 4 µg/mL (≈ 5.07 µM)
CC[C@H]1OC(=O)[C@H](C)C(=O)[C@H](C)[C@@H](O[C@@H]2O[C@H](C)C[C@H](N(C)C)[C@H]2O)[C@](C)(OC)C[C@@H](C)C(=O)[C@H](C)[C@H]2[C@@H](SCCNC(=O)c3ccc4ncccc4c3)C(=O)O[C@@]21C (single isomer, unassigned) [Example 47] |  |  |  |  |  |  |  |  | >32 µg/mL | <=0.06 μg/ml | >32 µg/mL | 0.125 µg/mL (≈ 0.148 µM) | >32 µg/mL | 8 µg/mL (≈ 9.5 µM) | <=0.06 μg/ml | <=0.06 μg/ml | 8 µg/mL (≈ 9.5 µM) | 2 µg/mL (≈ 2.38 µM) | 4 µg/mL (≈ 4.75 µM) | 4 µg/mL (≈ 4.75 µM) | 
CC[C@H]1OC(=O)[C@H](C)C(=O)[C@H](C)[C@@H](O[C@@H]2O[C@H](C)C[C@H](N(C)C)[C@H]2O)[C@](C)(OC)C[C@@H](C)C(=O)[C@H](C)[C@H]2[C@@H](SCCNC(=O)c3ccc(-n4ccnc4)nc3)C(=O)O[C@@]21C (single isomer, unassigned) [Example 48] |  |  |  |  |  |  |  |  | >32 µg/mL | 0.25 µg/mL (≈ 0.291 µM) | >32 µg/mL | 0.25 µg/mL (≈ 0.291 µM) | >32 µg/mL | >32 µg/mL | <=0.06 μg/ml | >32 µg/mL | 32 µg/mL (≈ 37.3 µM) | 16 µg/mL (≈ 18.6 µM) | 16 µg/mL (≈ 18.6 µM) | 16 µg/mL (≈ 18.6 µM) | 

Further lines, with some results ahead:

MIC [1] | MIC [2] | MIC [3] | MIC [4] | MIC [5] | MIC [6] | MIC [7] | MIC [8] | minimum inhibitory concentration (MIC), Strain D [1] | minimum inhibitory concentration (MIC), Strain B [2] | minimum inhibitory concentration (MIC), Strain C [3] | minimum inhibitory concentration (MIC), Strain A [4] | minimum inhibitory concentration (MIC), Strain H [5] | minimum inhibitory concentration (MIC), Strain G [6] | minimum inhibitory concentration (MIC), Strain E [7] | minimum inhibitory concentration (MIC), Strain F [8] | minimum inhibitory concentration (MIC), Strain K [9] | minimum inhibitory concentration (MIC), Strain M [10] | minimum inhibitory concentration (MIC), Strain I [11] | minimum inhibitory concentration (MIC), Strain L [12] | Compound | other results
 |  |  |  |  |  |  |  | >32 µg/mL | 0.125 µg/mL (≈ 0.148 µM) | 32 µg/mL (≈ 37.8 µM) | 0.25 µg/mL (≈ 0.295 µM) | 4 µg/mL (≈ 4.73 µM) | 2 µg/mL (≈ 2.36 µM) | <=0.06 μg/ml | 0.125 µg/mL (≈ 0.148 µM) | 4 µg/mL (≈ 4.73 µM) | 8 µg/mL (≈ 9.46 µM) | 8 µg/mL (≈ 9.46 µM) | 4 µg/mL (≈ 4.73 µM) | CC[C@H]1OC(=O)[C@@](C)(F)C(=O)[C@H](C)[C@@H](O[C@@H]2O[C@H](C)C[C@H](N(C)C)[C@H]2O)[C@](C)(OC)C[C@@H](C)C(=O)[C@H](C)[C@H]2[C@@H](SCC(=O)Nc3cccc4cccnc34)C(=O)O[C@@]21C (single isomer, unassigned) [Example 25] | 
> 32 µg/mL | ≤ 0.06 µg/mL | > 32 µg/mL | ≤ 0.06 µg/mL | > 32 µg/mL | 8 µg/mL (≈ 9.5 µM) | ≤ 0.06 µg/mL | 8 µg/mL (≈ 9.5 µM) |  |  |  |  |  |  |  |  |  |  |  |  | CC[C@H]1OC(=O)[C@H](C)C(=O)[C@H](C)[C@@H](O[C@@H]2O[C@H](C)C[C@H](N(C)C)[C@H]2O)[C@](C)(OC)C[C@@H](C)C(=O)[C@H](C)[C@H]2[C@@H](SCCNC(=O)c3cnc4ccccc4c3)C(=O)O[C@@]21C (single isomer, unassigned) [Example 27, (3R or S, 3aR, 4R or S, 6R, 8R, 9R, 10R, 12R, 15R, 15aS)-15-Ethyloctahydro-8-methoxy-4,6,8,10,12,15a-hexamethyl-3-[[2-[(3-quinolinylcarbonyl)amino]ethyl]thio]-9-[[3,4,6-trideoxy-3-(dimethylamino)-β-D-xylo-hexopyranosyl]oxy]-2H-furo [2,3-c] oxacyclotetradecin-2,5,11,13 (3H,6H,12H)-tetrone] | MIC [9]: 16 µg/mL (≈ 19 µM); MIC [10]: 8 µg/mL (≈ 9.5 µM); MIC [11]: 16 µg/mL (≈ 19 µM); MIC [12]: 16 µg/mL (≈ 19 µM)
 |  |  |  |  |  |  |  | >32 µg/mL | 0.125 µg/mL (≈ 0.148 µM) | >32 µg/mL | 0.125 µg/mL (≈ 0.148 µM) | >32 µg/mL | 32 µg/mL (≈ 38 µM) | <=0.06 μg/ml | 32 µg/mL (≈ 38 µM) | 16 µg/mL (≈ 19 µM) | 16 µg/mL (≈ 19 µM) | 16 µg/mL (≈ 19 µM) | 16 µg/mL (≈ 19 µM) | CC[C@H]1OC(=O)[C@H](C)C(=O)[C@H](C)[C@@H](O[C@@H]2O[C@H](C)C[C@H](N(C)C)[C@H]2O)[C@](C)(OC)C[C@@H](C)C(=O)[C@H](C)[C@H]2[C@@H](SCCC(=O)Nc3cnc4ccccc4c3)C(=O)O[C@@]21C (single isomer, unassigned) [Example 42] | 
